The values that follow come from US20140128461A1, “USE OF A FOOD COMPOSITION IN THE TREATMENT AND/OR PREVENTION OF NEUROPATHIC PAIN INDUCED BY AN ANTICANCER AGENT” (priority 2010, published 2014).

In data set [1] the test system is NR2B subunit of the NMDA receptors. Kind of data set: Western blot of NR2B expression and phosphorylation in the dorsal horn of the spinal cord. The settings on record: D3 after oxaliplatin 6 mg/kg ip, polyamine-containing diet, vs control animals. It is filed as in vivo, rat. How it is done: The dorsal corn of the spinal cord (L4-L6) was isolated on an ice block and immediately frozen in liquid nitrogen. The samples were then stored at −80° C. until analysis.
The tissue samples were subjected to cell lysis at 4° C. performed with 300 μL of stop buffer (50 mM Hepes, 150 mM NaCl, 10 mM EDTA, 10 mM Na2P2O7, 10 mM vanadate, 2 mM Na3VO4, 100 mM NaF, 1% Triton, 0.5 mM PMSF, 100 UI/mL Iniprol and 20 μM Leupeptine, pH 7.5). After sonication (1 to 2 minutes at 4° C.), the sample was centrifuged at 14000 rpm at 4° C. and the supernatant collected. This centrifuging step was repeated once. The supernatant contained the cytoplasmic and membrane proteins assayed by colorimetry (BC Assay UP40840A®, Interchim). […] The proteins were then transferred onto a nitrocellulose membrane (Millipore) for 2 hours in a transfer buffer (25 mM Tris, 190 mM glycine, 20% methanol, pH 8.3). The membranes were hybridised with the corresponding antibodies overnight at 4° C. […] The Western-Blots were scanned with an image analyser ChemiDoc™ XRS System, Bio-rad®) and the density of each band was quantified using computer software (Image Lab™ software, Bio-rad®)). […] The results are expressed as a percentage of the control group (non-treated group receiving a diet containing polyamines, PCD CT).

In data set [2] the test system is chronic neuropathy induced by oxaliplatin in rat. The data set is described as follows: Thermal Place Preference Test 20° C. vs. 30° C., chronic neuropathy model, preventive diet.
Method: The rats were distributed among plastic cages with 4 rats per cage. The cages were placed in an air-conditioned room at 22° C.±2° C., with controlled hygrometry (50%), a day/night 12-hour lighting cycle, and free access to food and water.
Two types of compositions were used: • a composition containing a quantity of polyamines equivalent to that present in a daily food diet (Putrescine: 54 mg/kg, Cadaverine: 37 mg/kg, Spermidine: 27 mg/kg, Spermine: 7 mg/kg), • a composition with low polyamine content comprising less than 1600 picomoles/g polyamines (Putrescine<0.01 mg/kg, Cadaverine<0.01 mg/kg, Spermidine<0.01 mg/kg, Spermine<0.01 mg/kg).
The different types of diets (diet based on a composition comprising a normal content of polyamines or PCD (Polyamine Containing Diet) and a diet based on a composition with low polyamines content called PDD (Polyamine Deficient Diet)) were given as soon as the rats arrived in the animal housing facility i.e. one week before the start of experiments.
The Thermal Place Preference Test (Bioseb®, Chaville, France) is formed of two adjacent metal plates surrounded by a chamber in opaque Plexiglas. The rat is placed in the chamber and is free to move from one plate to the other. The first plate called the <<reference plate>> is held at ambient temperature (25-30° C.) and the second plate called the <<test plate>> is held at a cold temperature. Using an infrared camera connected to a computer, the time that the animal spends on each plate is measured, together with the number of movements between the two plates. Each session lasts 3 minutes. Habituation of the animals consists of placing the rats on the apparatus for 3 minutes several times a day maintaining the two plates at a temperature of 25° C. […] Three pairs of temperatures were chosen for the experiments in relation to the model examined:
Data set [3] shares this test system. Kind of data set: Thermal Place Preference Test 20° C. vs. 30° C., chronic neuropathy model, curative diet (PDD from D15). The settings on record: rats on PCD diet.
Method: The Thermal Place Preference Test (Bioseb®, Chaville, France) is formed of two adjacent metal plates surrounded by a chamber in opaque Plexiglas. The rat is placed in the chamber and is free to move from one plate to the other. The first plate called the <<reference plate>> is held at ambient temperature (25-30° C.) and the second plate called the <<test plate>> is held at a cold temperature. Using an infrared camera connected to a computer, the time that the animal spends on each plate is measured, together with the number of movements between the two plates. Each session lasts 3 minutes. Habituation of the animals consists of placing the rats on the apparatus for 3 minutes several times a day maintaining the two plates at a temperature of 25° C.

With `O=C1[O][Pt]2([NH][C@@H]3CCCC[C@H]3[NH]2)[O]C1=O` [oxaliplatin], the “expression of the NR2B subunit” value in data set [1] was “No variation”. Further, the “phosphorylation of the NR2B subunit on tyrosine sites 1472 and 1336 and serine site 1303” value in data set [1] is reported as “No variation”. Also, the “change in time spent on the test plate (20° C.) vs control rats on PCD diet” value in data set [2] (D10, p<0.001) is −42%; in data set [2] (D15, p<0.001) it was −32%; in data set [2] (D22, p<0.001), −24%; in data set [2] (D29, p<0.05) it was −20%. For the same compound, the “change in time spent on the test plate (20° C.) vs control rats” value in data set [3] (D4 (maximal), p<0.01) is −46%; in data set [3] (D39, p<0.01), −15%.
